Source: patent US20100316738A1, “METHODS OF INHIBITING, PREVENTING, KILLING AND/OR REPELLING INSECTS USING SIMULATED BLENDS OF CHENOPODIUM EXTRACTS” (priority 2009, published 2010)
Several values for one entry are separate records, joined by “and”; a condition that tells them apart may be missing. Equal values may be shown once.

System: lepidoptera eggs (Spodoptera exigua)
Assay: Direct contact overlay LC assay, caterpillar eggs
Details: for Times more active in the C13 blend than when tested alone: LC50 alone vs share of C13 LC50 (1% solution); for Direct AVG LC50 / Estimated LC50: mortality after five days; for Direct AVG LC50: diluent 0.25% Tween 81; for Estimated LC50: nested set, probit analysis, tested alone in 0.25% Tween 81
Excerpt: The objective of this study was to evaluate the effects of synthetic blend-based composition C13 and each of its primary terpenes against lepidoptera eggs (Spodoptera exigua) in a laboratory assay that mimics contact activity on a leaf surface in the field. This was done by estimating the LC50 of the solvent/carrier (in this instance, vegetable oil) and the three primary terpenes alone, and comparing those values to the estimated LC50 of C13.
A requirement of the Probit model used to estimate the LC50 is that there should be a dose response with two rates above 50% mortality and two rates below 50%. Because of their solubility it was not possible to get this with a neat solution of oil or terpenes so, a series of preliminary assays were conducted to find a suitable carrier, testing solutions compatible with the terpenes and carrier. To achieve a stable emulsion of the individual terpenes that could be pipetted across a suitable range of concentrations, it was decided to use a universal diluent containing 0.25% Tween™ 81.
Stock solutions were transferred to deep, 96-well, micro-titre plates. 1.4 ml of each stock solution was placed in the 2 ml wells that ran across the top row of the deep well plate (Row A; wells 1-12, see Table 15). A digital 12-channel Matrix pipette was then used to add 700 uls of 0.25% Tween 81 in deionized water (DI H2O) to the remaining wells (Rows B-H; 1-12). The 12 channel pipette was used to perform serial dilutions by mixing, aspirating, and then dispensing 700 ul of each stock solution from row A into the adjoining 700 ul of diluent in row B. This process was repeated seven times to give a final concentration of eight, 50% serially diluted samples containing 700 μl.
An eight channel Matrix pipette was then used to mix, aspirate and distribute all eight of the serial dilutions from the deep well plate to a labeled 96 well plate containing a wheat germ/casein-based artificial diet. Aliquots containing 240 μl of each dilution were aspirated and 40 μl were dispensed into to six wells across the surface of the micro-titre plate containing 200 μl of artificial diet/well. Two samples were tested on every plate with the one sample in rows A through H—columns 1 to 6, and the second sample in wells A through H columns 7 to 12. The last two samples in each assay contain the Javelin standard and 0.25% Tween in DI water as the untreated controls.
The samples were then dried under forced air at room temperature. This deposits a thin film of the treatment on the surface of the diet much the same way as applying a spray solution to a leaf surface. Once the plates were dried, then eggs were put in each well using a Matrix pipette with 5-10 temporally synchronized caterpillar eggs suspended in 20 μl of a 0.1% agar solution. This rehydrates the surface film and then the egg:agar was dried under forced air, a second time. Once the agar solution was dry the plates were heat sealed with a perforated Mylar film that seals the insects in the well, but allows for gas exchange. The plates were incubated at 28° C. on a 16:8 light:dark cycle. After five days the numbers of live insects in each row were recorded. Mortality was recorded as the number dead over the number treated and expressed as control corrected percent mortality.

| Structure (SMILES) | Times more active in the C13 blend than when tested alone [X] | Direct AVG LC50 [%] | Estimated LC50 |
| --- | --- | --- | --- |
| Cc1ccc(C(C)C)cc1 [p-cymene] | 72 | 1.539 | 2.68% and 2.682% |
| CC1=CC=C(C(C)C)CC1 [α-terpinene] |  | 4.336 | 4.77% and 4.776% |
| C=C(C)[C@H]1CC=C(C)CC1 [d-limonene] | 64 | 2.093 | 1.9% and 1.905% |
